These results are taken from publication PMC10118179, “Tannic acid, an IL-1β-direct binding compound, ameliorates IL-1β-induced inflammation and cartilage degradation by hindering IL-1β-IL-1R1 interaction” (PLOS ONE, 2023).

The assay has as its target T1, Interleukin-1β (IL-1β) (Homo sapiens, UniProt P01584).
T1 construct: gene IL1B; recombinant human IL-1β
Kind of assay: SPR (Biacore T200, IL-1β immobilized on CM5 chip). It is filed as binding. Background: In SPR one partner is held on a chip, and binding of the other changes the refractive index at the surface.

As a reminder, the Kd is the concentration at which binding is half-saturated. Lower therefore signals higher affinity.

T1 sequence (P01584 117-269): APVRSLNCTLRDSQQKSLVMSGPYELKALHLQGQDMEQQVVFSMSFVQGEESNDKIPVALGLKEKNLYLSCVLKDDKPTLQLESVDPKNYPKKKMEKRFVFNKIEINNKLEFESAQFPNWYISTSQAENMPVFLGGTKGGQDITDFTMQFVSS

In turn, `O=C(OC[C@H]1O[C@@H](OC(=O)c2cc(O)c(O)c(OC(=O)c3cc(O)c(O)c(O)c3)c2)[C@H](OC(=O)c2cc(O)c(O)c(OC(=O)c3cc(O)c(O)c(O)c3)c2)[C@@H](OC(=O)c2cc(O)c(O)c(OC(=O)c3cc(O)c(O)c(O)c3)c2)[C@@H]1OC(=O)c1cc(O)c(O)c(OC(=O)c2cc(O)c(O)c(O)c2)c1)c1cc(O)c(O)c(OC(=O)c2cc(O)c(O)c(O)c2)c1` [TA, Tannic acid] registered a Kd of 822 nM.
